From patent US10393751B2, “Specific peptide binders to proteins identified via systematic discovery, maturation and extension process” (Roche […], Inc., priority 2015, dated 2019)

Molecular target: streptavidin (Streptomyces avidinii, UniProt P22629)
Test: Surface Plasmon Resonance (Biacore X100) of synthesized peptides on immobilized streptavidin
Format: binding
Details: for KD (equilibrium dissociation constant, kd/ka) / Kd / kon / koff: SPR; for kon: read-out: Ka (association rate constant); for koff: read-out: Kd (dissociation rate constant)
Excerpt: A selection of streptavidin peptide binders listed in Table 15 were synthesized using standard column-based synthesis techniques by UW Biotechnology center (Madison, Wis.) or by Peptide2.0 (Chantilly, Va.) at 98-99% purity. Strep-tag II peptide NH2-SAWSHPQFEK-COOH was purchased from IBA GmbH (Goettingen, Germany). Synthesized peptides were then characterized by Surface Plasmon Resonance (SPR) to identify binding characteristics including the association rate constant (ks), dissociation rate constant (kd), and equilibrium dissociation rate constant (kd/ka=KD). In one aspect, SPR experiments were performed by using Biacore X100 instrument (GE Healthcare). Preliminarily, 60 μl of 100 μg/ml streptavidin in 10 mM Na-acetate, pH5.0 was immobilized to flow cell 2 (Fc2) of a sensor chip CM5 (GE Healthcare) using Amine Coupling Kit (GE Healthcare) at 20° C. for 6 min. Peptide stock solutions were prepared at 5 or 10 mM concentration in water and diluted in HBS-EP+ (GE Healthcare) buffer before SPR experiments. Peptide binding was performed in a multiple kinetics mode using HBS-EP+ as a running buffer and 0.2 M NaCl, 10 mM NaOH or 10 mM HCl-glycine, […] as regeneration buffer. Binding kinetics parameters were calculated with Biacore X100 software.

[1] = streptavidin immobilized on CM5 chip, HBS-EP+ running buffer
[2] = KD (equilibrium dissociation constant, kd/ka), streptavidin immobilized on CM5 chip, HBS-EP+ running buffer
[3] = KD of peptide-streptavidin complex, restated in text from Table 15

streptavidin, sequence (P22629 25-183, species assumed): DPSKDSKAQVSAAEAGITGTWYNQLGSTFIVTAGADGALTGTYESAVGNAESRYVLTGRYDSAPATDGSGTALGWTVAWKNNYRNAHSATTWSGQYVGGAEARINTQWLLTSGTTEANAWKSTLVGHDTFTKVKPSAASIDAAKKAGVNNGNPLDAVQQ

| Substance | KD (equilibrium dissociation constant, kd/ka) [1] | kon [1] [M⁻¹ s⁻¹] | KD as compared with the Strep-Tag II peptide (SEQ ID NO:233) (result in words) | also measured |
| --- | --- | --- | --- | --- |
| GNSFDDWLASKG [NH2-GNSFDDWLASKG-amide] | Irreversible | – | – | binding as compared with the parent peptide NSFDDWLAKGG (result in words): irreversible binding |
| H-ADYLAEYHGG-OH [NH2-ADYLAEYHGG-COOH] | – | – | – | Kd [2]: 96 ± 5 µM; Kd [3]: ~96 µM |
| H-AFDYLAQYHGG-NH2 [NH2-AFDYLAQYHGG-amide] | – | 23300 | – | koff [1]: 0.0354 s⁻¹ |
| H-AFPDYLAEYHGG-NH2 [NH2-AFPDYLAEYHGG-amide] | 0.043 µM | 30100 | – | koff [1]: 0.00128 s⁻¹; KD rank among the streptavidin peptide binders in Table 15 (result in words): lowest KD |
| H-DPAPAWAHGG-OH [NH2-DPAPAWAHGG-COOH] | – | – | – | Kd [2]: > 500 µM |
| H-EWVHPQFEQKAK-NH2 [NH2-EWVHPQFEQKAK-amide] | – | – | decreased KD | – |
| H-RDPAPAWAHGGG-NH2 [NH2-RDPAPAWAHGGG-amide] | 4.66 µM | 14900 | – | Kd [3]: ~4.66 µM; change in KD as compared with the parent peptide (parent peptide DPAPAWAHGG (SEQ ID NO:242)): ≥ 100 fold |
| H-WTHPQFEQK-OH [NH2-WTHPQFEQK-COOH] | – | – | decreased KD | – |
| H-WTHPQFEQPKA-NH2 [NH2-WTHPQFEQPKA-amide] | – | – | decreased KD | – |
